Assay results taken from patent US9604894B2, “Compounds from antrodia camphorate and their use in treatment of diabetes mellitus” (National Dong Hwa University, priority 2014, dated 2017).
“Also recorded” adds a separate entry of the source.

Key:
[1] = system: AMPK Thr172 phosphorylation; test: AMPK Thr172 phosphorylation, Western blot in differentiated C2C12 cells; format: cell-based, mouse; settings: C2C12, 37° C., 30 min; insulin 100 nM, metformin 16 mM, antroquinonol 25 μM; FIG. 3(B)
Protocol: (§1) FIG. 3(B) provides the results of AMPK Thr172 phosphorylation induced by insulin, metformin (Met) and antroquinonol (Ant); wherein the differentiated C2C12 cells were incubated with 100 nM of insulin, 16 mM of metformin (Met), or 25 μM of antroquinonol (Ant) at 37° C. for 30 min, and then the cell lysates were separated by SDS-PAGE and blotted for phospho-AMPK Thr172; wherein the data were expressed as means with standard errors of mean (mean±SEM), and different letters represent the significant differences (p<0.05) among the various treatments.
Mouse muscle myoblast cells (C2C12) were obtained from the Food Industry Research and Development Institute (FIRDI, Hsinchu, Taiwan). […]
After treatments, the cells were collected and washed twice in cold KRH buffer (containing 50 mM HEPES, 137 mM NaCl, 4.8 mM KCl, 1.85 mM CaCl2, 1.3 mM MgSO4), and then lysed in ice-cold RIPA buffer (containing 50 mM Tris-HCl, pH 8.0, 150 mM NaCl, 5 mM NaF, 1% NP40, 1 mM sodium orthovanadate, 0.5% sodium deoxycholate, 0.1% sodium dodecyl sulphate (SDS), protease inhibitors, and phosphatase inhibitors (DE-68305, Roche, Mannheim, Germany)) and incubated at 4° C. for 60 min. After centrifugation of the cells at 12,000×g at 4° C. for 30 min, the supernatant was kept and quantified by Bradford protein assay (Bio-Rad, Hercules, Calif., USA). […]

[2] = system: DIO ICR mice; test: Long term glucose tolerance (OGTT) in diet-induced obesity (DIO) ICR mice; format: in vivo, mouse; settings: antroquinonol 25 mg/kg Bwt versus Sitagliptin 10 mg/kg Bwt, q.o.d. for 4 weeks, FIG. 9
Protocol: (§2) Animal experiments were approved by the National Dong-Hwa University Animal Ethics Committee and were used according to the “Guide for the Care and Use of Laboratory Animals” of National Dong-Hwa University. C57BL/6 mouse and Imprinting Control Region (ICR) mouse were obtained National Laboratory Animal Center (Taipei, Taiwan) and kept at controlled environmental conditions with room temperature (22±2° C.) and humidity (50±10%). The 12 h light (0600 am-1800 pm) and 12 h dark cycle was maintained throughout the study. Mice had free access to food and water and maintained on a standard laboratory diet (carbohydrates; 60%, proteins; 28%, lipids; 12%, vitamins; 3%).
(§3) Mice were employed to this test after fasting 12 h. Mice were treated with D-glucose by oral gavage (2 g/kg, p.o.). At approximately 0, 30, 60, 90, and 120 min, blood was sampled by venipuncture from the tail vein for the determining blood glucose. Blood glucose was immediately determined by the glucose oxidase method using glucose analyzer (Accu-Chek, Roche).
(§4) 8 weeks old ICR male mice were induced with high fat die and 60% fructose water for 10 weeks. […] Blood glucose was immediately determined by the glucose oxidase method using glucose analyzer (Accu-Chek, Roche), when blood sugar was sustained at higher level than 200 mg/dl after 120 min oral glucose that defined high blood sugar. […]

[3] = system: AKT Thr308 phosphorylation; test: AKT Thr308 phosphorylation, Western blot in differentiated C2C12 cells; format: cell-based, mouse; settings: C2C12, 37° C., 30 min; insulin 100 nM, metformin 16 mM, antroquinonol 25 μM; FIG. 3(A)
Protocol: as §1, with “3(A)” for “3(B)”, “the AKT Thr308” for “AMPK Thr172”, “phospho-AKT Thr308;” for “phospho-AMPK Thr172;”
Mouse muscle myoblast cells (C2C12) were obtained from the Food Industry Research and Development Institute (FIRDI, Hsinchu, Taiwan). The cells were grown and maintained in Dulbecco's Modified Eagle's Medium containing high level of glucose (DMEM-high glucose; GIBCO, Carlsbad, Calif., USA) supplemented with 10% fetal bovine serum (FBS, GIBCO) and 1% penicillin streptomycin (GIBCO) in a cell culture incubator with 5% CO2 at 37° C. Prior to experiment, the cells were seeded and cultured at a density of 8×10^3 cells per well in 96-well plates or 2.5×10^5 cells per well in 6-well plates. […]
(§5) After treatments, the cells were collected and washed twice in cold KRH buffer (containing 50 mM HEPES, 137 mM NaCl, 4.8 mM KCl, 1.85 mM CaCl2, 1.3 mM MgSO4), and then lysed in ice-cold RIPA buffer (containing 50 mM Tris-HCl, pH 8.0, 150 mM NaCl, 5 mM NaF, 1% NP40, 1 mM sodium orthovanadate, 0.5% sodium deoxycholate, 0.1% sodium dodecyl sulphate (SDS), protease inhibitors, and phosphatase inhibitors (DE-68305, Roche, Mannheim, Germany)) and incubated at 4° C. for 60 min. After centrifugation of the cells at 12,000×g at 4° C. for 30 min, the supernatant was kept and quantified by Bradford protein assay (Bio-Rad, Hercules, Calif., USA). […] The signals were monitored using Western Lightning™ Plus-ECL (Perkin Elmer Life Sciences) and the PVDF membrane was exposed to Luminescent image analyzer (LAS)-3000 (Fujifilm, Minato, Tokyo, Japan). The acquired data were analyzed and compared the difference among various treatments. […]

[4] = system: C57 BL/6 mice; test: Oral glucose tolerance test in S961-induced insulin resistance mice; format: in vivo, mouse; settings: D-glucose 2 g/kg; for hypoglycemic efficacy, OGTT blood glucose AUC: S961 50 nmol/kg Bwt, enantiomer 50 mg/kg Bwt p.o., FIG. 7(B)
Protocol: as §2, §3
8 weeks old male C57 BL/6 mice were employed to this test after fasting 12 h. To investigate the effect of natural compounds on the 5961 (insulin receptor antagonist, Novo-Nordisk, Denmark) induced hyperglycemia, mice was intraperitoneally injected (i.p.) S961 (50 nmol/kg Bwt) at 15 min prior to oral gavaged (p.o.) with antroquinonol (dissolved in PEG and EtoH, 50 mg/kg Bwt) and D-glucose (2 g/kg Bwt). At approximately 0, 30, 60, 90, and 120 min, blood was sampled by venipuncture from the tail vein for OGTT test.

[5] = system: PKA protein level; test: Glucagon like peptide-1 induced PKA protein level, Western blot in AR42J cells; format: cell-based, rat; settings: 5 μM and 20 μM, with 1 nM GLP-1 or 1 nM exendin-4, 48 h, FIG. 4
Protocol: Rat pancreas tumor cells (AR42J) were obtained from the Food Industry Research and Development Institute (FIRDI, Hsinchu, Taiwan). The cells were grown and maintained in DMEM (GIBCO) supplemented with 20% fetal bovine serum (FBS, GIBCO) and 1% penicillin streptomycin (GIBCO) and 2 mM of L-glutamin in a cell culture incubator with 5% CO2 at 37° C. Prior to the experiments, the cells were seeded and cultured for 16-24 h.
as §5

[6] = system: GLUT4 translocation; test: Measurement of GLUT4 translocation in differentiated C2C12 cells; format: cell-based, mouse; settings: FIG. 5(A)
Protocol: Mouse muscle myoblast cells (C2C12) were obtained from the Food Industry Research and Development Institute (FIRDI, Hsinchu, Taiwan). The cells were grown and maintained in Dulbecco's Modified Eagle's Medium containing high level of glucose (DMEM-high glucose; GIBCO, Carlsbad, Calif., USA) supplemented with 10% fetal bovine serum (FBS, GIBCO) and 1% penicillin streptomycin (GIBCO) in a cell culture incubator with 5% CO2 at 37° C. Prior to experiment, the cells were seeded and cultured at a density of 8×10^3 cells per well in 96-well plates or 2.5×10^5 cells per well in 6-well plates. After the myoblasts achieved 80% confluence, the cells were incubated for 4 days in DMEM—high glucose supplemented with 1% FBS and 1% horse serum induced differentiation to myotubes.
C2C12 was fully differentiated with DMEM supplemented with 1% FBS and 1% horse serum for 4 days. The cells were washed twice with PBS containing 0.1% BSA and subsequently incubated in PBS with or without the treatment with 185 μM insulin (Ins), 16 mM metformin (Met), or 50, 100, and 150 μM of antroquinonol (Ant) for 55 min (n=5 in each group) respectively, and then placed on ice and immediately fixed with 1% glutaraldehyde in PBS at RT for 10 min. […] HRP activity was determined by measuring the absorbance at 450 nm with a spectrophotometer (EnSpire 2300 Multilabel Reader, Perkin Elmer, Waltham, Mass., USA). […]

[7] = target: T1, Dipeptidyl peptidase-4 (DPP4) (Homo sapiens, UniProt P27487); test: DPP4 enzyme activity (DPPIV/CD26 Assay Kit); format: biochemical; settings: 100 μM, 30 min at RT; FIG. 2
T1 construct: purchased Enzo BML-AK498
Protocol: Dipeptidyl peptidase-4 (DPP4), also known as adenosine deaminase complexing protein 2 or CD26 (cluster of differentiation 26), is […]. DPP4 enzyme activity was measured by a DPPIV/CD26 Assay Kit (BML-AK498, Enzo, N.Y., USA). This assay is based on the cleavage of the p-nitroaniline (pNA) from the chromogenic substrate (H-Gly-Pro-pNA) to increase the absorbance at 405 nm. Firstly 50 μL of assay buffer (50 mM Glycine, pH 8.7, 1 mM EDTA) per will was added into the 96-well clear microplate, and then 20 μL of DPP4 enzyme (13 μU/μL), 20 μL of tested inhibitors, 100 μM of antroquinonol or known clinical drug sitagliptin, and finally 10 μL of pNA substrate were added to each well sequentially. After an incubation of reaction mixture at room temperature (RT) for 30 min, the absorbance of each sample was read at 405 nm by the ELISA plate reader (Thermo Labsystems, Opsys MR, Thermo fisher scientific).

[8] = system: DIO ICR mice; test: Short term glucose tolerance (OGTT) in diet-induced obesity (DIO) ICR mice; format: in vivo, mouse; settings: antroquinonol 25 mg/kg Bwt versus Sitagliptin 20 mg/kg Bwt, 15 min before D-glucose 2 g/kg, FIG. 8
Protocol: as §2, §3, §4

T1 sequence (P27487 whole entry): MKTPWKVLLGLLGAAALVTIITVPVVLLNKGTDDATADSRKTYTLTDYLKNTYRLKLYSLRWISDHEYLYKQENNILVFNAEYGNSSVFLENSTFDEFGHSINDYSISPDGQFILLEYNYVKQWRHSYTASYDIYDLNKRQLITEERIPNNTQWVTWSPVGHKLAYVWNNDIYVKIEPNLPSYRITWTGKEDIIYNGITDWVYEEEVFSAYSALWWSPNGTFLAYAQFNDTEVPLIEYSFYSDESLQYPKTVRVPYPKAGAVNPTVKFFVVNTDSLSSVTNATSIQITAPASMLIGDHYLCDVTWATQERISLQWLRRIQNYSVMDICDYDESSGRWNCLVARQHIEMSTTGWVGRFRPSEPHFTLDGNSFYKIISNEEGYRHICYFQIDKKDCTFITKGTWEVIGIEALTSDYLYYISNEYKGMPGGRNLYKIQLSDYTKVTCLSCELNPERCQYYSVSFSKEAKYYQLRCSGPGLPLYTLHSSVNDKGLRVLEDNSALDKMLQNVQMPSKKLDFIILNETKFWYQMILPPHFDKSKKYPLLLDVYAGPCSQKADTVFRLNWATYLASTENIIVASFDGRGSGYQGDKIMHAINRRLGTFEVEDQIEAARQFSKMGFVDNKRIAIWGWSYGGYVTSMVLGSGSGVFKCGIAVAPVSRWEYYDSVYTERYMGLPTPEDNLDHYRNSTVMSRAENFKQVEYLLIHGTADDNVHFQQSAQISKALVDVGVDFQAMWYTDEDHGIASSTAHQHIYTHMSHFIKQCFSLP

Compound: COC1=C(OC)[C@H](O)[C@H](C/C=C(\C)CC/C=C(\C)CCC=C(C)C)[C@@H](C)C1=O [antroquinonol]
- AMPK Thr172 phosphorylation [1]: significantly better efficacy on the phosphorylation of AMPK Thr172 than insulin and metformin
- glucose tolerance, OGTT blood glucose AUC, long term [2]: effects similar to Sitagliptin
- AKT Thr308 phosphorylation [3]: not
- hypoglycemic efficacy, OGTT blood glucose AUC (ratio to the control) ([4]; S961-treated mice, antroquinonol 50 mg/kg Bwt p.o., metformin 100 mg/kg as positive control, FIG. 7(A)): had the hypoglycemic efficacy in the condition of insulin resistance through the oral glucose tolerance test (OGTT), similar to Metformin
- PKA protein level [5]: PKA protein level was expressed
- GLUT4 translocation, comparison with metformin ([6]; C2C12, 100 μM of antroquinonol): equivalent to 16 mM metformin
- GLUT4 translocation ([6]; C2C12, antroquinonol 50, 100, 150 μM versus insulin 185 μM and metformin 16 mM, 55 min): good effect on GLUT4 translocation similar to insulin (Ins), and which is even better than metformin (Met); also recorded: enhanced GLUT4 translocation with dose-dependent manner
- inhibitory rate of DPP4 activity (compared to the control without treatment) [7]: up to 50%
- glucose tolerance, OGTT blood glucose AUC, short term [8]: effects similar to Sitagliptin

Compound: COC1=C(OC)[C@@H](O)[C@@H](C/C=C(\C)CC/C=C(\C)CCC=C(C)C)[C@H](C)C1=O [(−)-antroquinonol]
- hypoglycemic efficacy, OGTT blood glucose AUC [4]: had the hypoglycemic efficacy

Compound: insulin
- AKT Thr308 phosphorylation [3]: induced insulin signaling pathway at the phosphorylation of AKT Thr308

Compound: (+)-antroquinonol
- hypoglycemic efficacy, OGTT blood glucose AUC [4]: had the hypoglycemic efficacy

Compound: CN(C)C(=N)N=C(N)N [metformin, reference compound]
- AMPK Thr172 phosphorylation [1]: provided an effect in action to the phosphorylation of AMPK Thr172
- AKT Thr308 phosphorylation [3]: not
